Measurements taken from US20040102622A1, “Modulation of hepatocyte growth factor receptor expression” (Isis Pharmaceuticals Inc., priority 2002, published 2004).
Strand notation (5' to 3'): a small letter for the sugar, then the base; units joined by * are phosphorothioate-linked, units joined directly phosphodiester-linked; [ ] holds rarer units or linkages, { } end groups; capitals alone tell only the bases. e = 2'-O-(2-methoxyethyl) (MOE); [5mC] = 5-methylcytosine; d = 2'-deoxy (DNA)

Columns and labels:
[1] = test system: human hepatocyte growth factor receptor mRNA; on % INHIB (inhibition of human hepatocyte growth factor receptor mRNA levels): test concentration or dose not given here
[2] = test system: human hepatocyte growth factor receptor mRNA; assay: Inhibition of human hepatocyte growth factor receptor mRNA levels in T-24 cells, quantitative real-time PCR; conditions: averages from three experiments; on % INHIB (inhibition of human hepatocyte growth factor receptor mRNA levels): test concentration or dose not given here

## ISIS 209548: 2′-MOE gapmer, phosphorothioate backbone, sequence tcaagaagccctcaatattt (antisense TCAAGAAGCCCTCAATATTT; all phosphorothioate, sugars by position and methylation of C not given here; 2'-MOE gapmer)
[1]
  inhibition of human hepatocyte growth factor receptor expression: at least 35%

## ISIS 155133: 2′-MOE gapmer, phosphorothioate backbone, sequence aaaccatttctgtagttggg (antisense AAACCATTTCTGTAGTTGGG; all phosphorothioate, sugars by position and methylation of C not given here; 2'-MOE gapmer)
[1]
  inhibition of human hepatocyte growth factor receptor expression: at least 35%

## ISIS 209540: 2′-MOE gapmer, phosphorothioate backbone, sequence cacatcccttgtaagttgga (antisense CACATCCCTTGTAAGTTGGA; all phosphorothioate, sugars by position and methylation of C not given here; 2'-MOE gapmer)
[1]
  inhibition of human hepatocyte growth factor receptor expression: at least 35%

## ISIS 155112: 2′-MOE gapmer, phosphorothioate backbone, sequence taggagtcttctcccttgca (antisense TAGGAGTCTTCTCCCTTGCA; all phosphorothioate, sugars by position and methylation of C not given here; 2'-MOE gapmer)
[1]
  inhibition of human hepatocyte growth factor receptor expression: at least 35%

## ISIS 155115: 2′-MOE gapmer, phosphorothioate backbone, sequence agttccttcctgcttcatgc (antisense AGTTCCTTCCTGCTTCATGC; all phosphorothioate, sugars by position and methylation of C not given here; 2'-MOE gapmer)
[1]
  inhibition of human hepatocyte growth factor receptor expression: at least 35%

## ISIS 209536: 2′-MOE gapmer, phosphorothioate backbone, sequence cctcccatactagagaagta (antisense CCTCCCATACTAGAGAAGTA; all phosphorothioate, sugars by position and methylation of C not given here; 2'-MOE gapmer)
[1]
  inhibition of human hepatocyte growth factor receptor expression: at least 35%

## ISIS 209543: 2′-MOE gapmer, phosphorothioate backbone, sequence gatgccaccgtgcactgtgc (antisense GATGCCACCGTGCACTGTGC; all phosphorothioate, sugars by position and methylation of C not given here; 2'-MOE gapmer)
[1]
  inhibition of human hepatocyte growth factor receptor expression: at least 35%

## ISIS 155102: 2′-MOE gapmer, phosphorothioate backbone, sequence gagaggcattgactgcagga (antisense GAGAGGCATTGACTGCAGGA; all phosphorothioate, sugars by position and methylation of C not given here; 2'-MOE gapmer)
[1]
  inhibition of human hepatocyte growth factor receptor expression: at least 35%

## ISIS 155127: 2′-MOE gapmer, phosphorothioate backbone, sequence gatctggttgaactattact (antisense GATCTGGTTGAACTATTACT; all phosphorothioate, sugars by position and methylation of C not given here; 2'-MOE gapmer)
[1]
  inhibition of human hepatocyte growth factor receptor expression: at least 35%

## ISIS 155130: 2′-MOE gapmer, phosphorothioate backbone, sequence tctctgaactcaggtaaaac (antisense TCTCTGAACTCAGGTAAAAC; all phosphorothioate, sugars by position and methylation of C not given here; 2'-MOE gapmer)
[1]
  inhibition of human hepatocyte growth factor receptor expression: at least 35%

## 155123 (antisense eG*e[5mC]*eA*eA*eA*dG*d[5mC]*dT*dG*dT*dG*dG*dT*dA*dA*eA*e[5mC]*eT*e[5mC]*eT) [compound 155123]
[2]
  % INHIB (inhibition of human hepatocyte growth factor receptor mRNA levels): 91%

## 209537 (antisense eA*eG*eA*eG*eG*dT*dT*dT*dA*dT*d[5mC]*dT*dG*d[5mC]*d[5mC]*eA*eA*eA*eA*e[5mC]) [compound 209537]
[2]
  % INHIB (inhibition of human hepatocyte growth factor receptor mRNA levels): 43%

## 155117 (antisense eG*eT*eA*eG*eA*dT*dT*dG*d[5mC]*dA*dG*dG*d[5mC]*dA*dG*eA*e[5mC]*eA*eG*eA) [compound 155117]
[2]
  % INHIB (inhibition of human hepatocyte growth factor receptor mRNA levels): 75%

## 209544 (antisense eT*eA*eA*eT*eA*dG*dT*dG*d[5mC]*dA*dA*dT*dT*dT*dT*eG*eG*e[5mC]*eA*eA) [compound 209544]
[2]
  % INHIB (inhibition of human hepatocyte growth factor receptor mRNA levels): 82%

## 209549 (antisense e[5mC]*e[5mC]*eT*eG*eA*dG*d[5mC]*dA*dT*dT*dA*d[5mC]*dT*dA*dT*e[5mC]*eT*e[5mC]*eT*eT) [compound 209549]
[2]
  % INHIB (inhibition of human hepatocyte growth factor receptor mRNA levels): 84%

## 209528 (antisense eT*eT*eG*eG*eG*dA*dA*dA*dA*d[5mC]*d[5mC]*dT*dT*dG*dT*eA*eG*eA*eT*eT) [compound 209528]
[2]
  % INHIB (inhibition of human hepatocyte growth factor receptor mRNA levels): 42%

## 209541 (antisense eA*e[5mC]*e[5mC]*eA*eA*dG*dT*dA*d[5mC]*dT*dG*dT*dA*dA*dG*eA*eG*eA*eG*eG) [compound 209541]
[2]
  % INHIB (inhibition of human hepatocyte growth factor receptor mRNA levels): 40%

## 155132 (antisense eG*eA*eT*eT*e[5mC]*d[5mC]*d[5mC]*dT*d[5mC]*dG*dG*dT*d[5mC]*dA*dG*eA*eA*eA*eT*eT) [compound 155132]
[2]
  % INHIB (inhibition of human hepatocyte growth factor receptor mRNA levels): 39%

## 155112 (antisense eT*eA*eG*eG*eA*dG*dT*d[5mC]*dT*dT*d[5mC]*dT*d[5mC]*d[5mC]*d[5mC]*eT*eT*eG*e[5mC]*eA) [compound 155112]
[2]
  % INHIB (inhibition of human hepatocyte growth factor receptor mRNA levels): 81%

## 155099 (antisense e[5mC]*eA*eG*eG*eT*dT*dT*dT*dT*d[5mC]*d[5mC]*d[5mC]*dA*dA*d[5mC]*eA*e[5mC]*e[5mC]*eT*eG) [compound 155099]
[2]
  % INHIB (inhibition of human hepatocyte growth factor receptor mRNA levels): 77%

## 209545 (antisense eA*eA*eT*eA*e[5mC]*dA*dA*dG*dT*d[5mC]*d[5mC]*dT*dA*dT*dA*eA*eT*eA*eG*eT) [compound 209545]
[2]
  % INHIB (inhibition of human hepatocyte growth factor receptor mRNA levels): 10%

## 155128 (antisense eA*e[5mC]*eT*eG*eT*dG*dA*dA*dT*dT*dT*dT*dT*d[5mC]*dA*eT*e[5mC]*e[5mC]*eA*eG) [compound 155128]
[2]
  % INHIB (inhibition of human hepatocyte growth factor receptor mRNA levels): 83%

## 155105 (antisense eA*eT*e[5mC]*eA*eA*dA*dG*dT*dA*dT*dT*dT*dG*dG*dA*eA*eA*eG*eG*eA) [compound 155105]
[2]
  % INHIB (inhibition of human hepatocyte growth factor receptor mRNA levels): 64%

## 209552 (antisense eT*eG*eA*eA*eA*d[5mC]*dT*dT*dT*d[5mC]*dT*dA*dG*dG*dT*eG*eG*eA*eG*eA) [compound 209552]
[2]
  % INHIB (inhibition of human hepatocyte growth factor receptor mRNA levels): 0%

## 209550 (antisense eT*eG*e[5mC]*eG*e[5mC]*dG*d[5mC]*dT*dG*dT*dA*dG*dT*d[5mC]*d[5mC]*e[5mC]*eA*eG*e[5mC]*eT) [compound 209550]
[2]
  % INHIB (inhibition of human hepatocyte growth factor receptor mRNA levels): 84%

## 209551 (antisense e[5mC]*eT*eT*eG*eG*dG*dA*dG*dG*d[5mC]*dG*dA*dG*dT*dG*eT*e[5mC]*eA*e[5mC]*e[5mC]) [compound 209551]
[2]
  % INHIB (inhibition of human hepatocyte growth factor receptor mRNA levels): 0%

## 209547 (antisense eT*e[5mC]*e[5mC]*eT*eG*d[5mC]*dT*dT*d[5mC]*dA*dA*dT*dT*dT*d[5mC]*e[5mC]*e[5mC]*eA*eT*eA) [compound 209547]
[2]
  % INHIB (inhibition of human hepatocyte growth factor receptor mRNA levels): 84%

## 209526 (antisense eT*eT*eG*eA*eT*dA*dG*dG*dG*dA*dA*dT*dG*d[5mC]*dA*e[5mC]*eA*e[5mC]*eA*eT) [compound 209526]
[2]
  % INHIB (inhibition of human hepatocyte growth factor receptor mRNA levels): 93%

## 209523 (antisense eG*eG*eG*e[5mC]*e[5mC]*dT*dT*d[5mC]*dA*dT*dT*dA*dT*dG*dA*eG*eA*eG*eG*eT) [compound 209523]
[2]
  % INHIB (inhibition of human hepatocyte growth factor receptor mRNA levels): 84%

## 209531 (antisense eT*eA*eA*eG*eT*d[5mC]*dA*dA*dT*dT*dT*dT*d[5mC]*dA*dA*eT*eT*eT*eA*eA) [compound 209531]
[2]
  % INHIB (inhibition of human hepatocyte growth factor receptor mRNA levels): 13%

## 155114 (antisense eA*eA*eT*eT*eG*dT*dT*dG*d[5mC]*dT*dT*dT*d[5mC]*dA*dA*eA*eG*eG*e[5mC]*eA) [compound 155114]
[2]
  % INHIB (inhibition of human hepatocyte growth factor receptor mRNA levels): 94%

## 209527 (antisense e[5mC]*eG*e[5mC]*eT*eT*d[5mC]*dA*d[5mC]*dA*dG*d[5mC]*d[5mC]*dT*dG*dA*eT*eG*eA*eA*eT) [compound 209527]
[2]
  % INHIB (inhibition of human hepatocyte growth factor receptor mRNA levels): 81%

## 155103 (antisense eT*eG*eG*eG*eA*dA*dG*d[5mC]*dT*dG*dA*dT*dA*d[5mC]*dT*eT*e[5mC]*eA*eT*eA) [compound 155103]
[2]
  % INHIB (inhibition of human hepatocyte growth factor receptor mRNA levels): 86%

## 155106 (antisense e[5mC]*eA*e[5mC]*eA*eA*d[5mC]*d[5mC]*dT*dG*d[5mC]*dA*dT*dG*dA*dA*eG*e[5mC]*eG*eA*e[5mC]) [compound 155106]
[2]
  % INHIB (inhibition of human hepatocyte growth factor receptor mRNA levels): 66%

## 209540 (antisense e[5mC]*eA*e[5mC]*eA*eT*d[5mC]*d[5mC]*d[5mC]*dT*dT*dG*dT*dA*dA*dG*eT*eT*eG*eG*eA) [compound 209540]
[2]
  % INHIB (inhibition of human hepatocyte growth factor receptor mRNA levels): 52%

## 155098 (antisense eT*e[5mC]*eA*eG*eA*dA*dG*dT*dG*dT*d[5mC]*d[5mC]*dT*dA*dT*eT*eA*eA*eA*eG) [compound 155098]
[2]
  % INHIB (inhibition of human hepatocyte growth factor receptor mRNA levels): 48%

## 155126 (antisense e[5mC]*eT*eG*eT*eG*d[5mC]*dA*dT*dT*dT*d[5mC]*dA*dA*dT*dG*eT*eA*eT*eT*e[5mC]) [compound 155126]
[2]
  % INHIB (inhibition of human hepatocyte growth factor receptor mRNA levels): 68%

## 209532 (antisense eA*eG*eT*eA*e[5mC]*dT*dA*dA*dT*dA*dA*dA*dA*dG*dA*eT*eT*eT*eG*eG) [compound 209532]
[2]
  % INHIB (inhibition of human hepatocyte growth factor receptor mRNA levels): 0%
